Converted amounts (≈) assume the structure as drawn.
Tested on: infected macrophages
Test: in vitro activity relative to infected macrophages, microcrystals containing cholesterol
Type: cell-based

C[C@@H]1[C@H](O)[C@@H](C)/C=C/C=C/C=C/C=C/C=C/C=C/C=C/[C@H](O[C@@H]2O[C@H](C)[C@@H](O)[C@H](N)[C@@H]2O)C[C@@H]2O[C@](O)(C[C@@H](O)C[C@@H](O)[C@H](O)CC[C@@H](O)C[C@@H](O)CC(=O)O[C@H]1C)C[C@H](O)[C@H]2C(=O)O [control amphotericin B, amphotericin B]
MIC on infected macrophages: 0.4 µM (≈ 0.37 µg/mL)
